We go through 2 molecules from patent US20220080025A1, “VITAMIN E AND CANCER THERAPEUTIC COMPOSITIONS AND METHODS” (University of Vermont and State Agricultural College, priority 2019, published 2022).

Values after ≈ are worked out from the molar mass of the structure shown.

For data set [1], the system named is HM cells. In words: Cell viability of HM malignant mesothelioma cells, 48 h, crystal violet staining. Type of data set: cell-based. Here is the method: (§1) Studies were performed to test the effects on cell viability of mesothelial (LP9) and malignant mesothelioma (HM) cells in culture when contacted with thiostrepton (TS) or TS diluted in Vitamin E-TPGS (VitE-TPGS, D-alpha-tocopherol polyethylene glycol 1000 succinate).
(§2) Indicated cell lines were plated into 96 well plates and allowed to adhere overnight. The following day test compounds were serially diluted in duplicate wells onto cells in complete tissue culture media. VitE-TPGS was serially diluted from a starting concentration of 0.025% (w/v) in 0.9% NaCl and added to LP9 or HM cells (FIG. 1). TS, dissolved in DMSO, was diluted to a starting concentration of 20 μM into cell culture media and serially diluted or diluted from a 1.5 mM TS/DMSO/5% VitE-TPGS (33 mM)/0.9% NaCl solution to a starting concentration of 20 μM TS/0.06% VitE-TPGS and serially diluted onto LP9 or HM cells (FIG. 2). Cells were incubated with test compounds for 48 hours before determining cell number using an indirect readout of cell viability by staining residual cells with crystal violet. The inhibitory concentration (IC50) in which 50% of the cells are not viable, was determined for tested compounds.

Data set [2] is described as follows: physchem. The note with it: 5% VitE-TPGS in normal saline, aqueous with cosolvent or surfactant or cyclodextrin, thermodynamic from solid.
Protocol: (§3) This study was performed to determine the intrinsic solubility of the test article in a variety of formulation systems as detailed below.
(§4) This method measured equilibrium solubility after 24h incubation with the desired formulation mixture. The solubility of the test article in each formulation mixture was measured by comparison of the AUC of the LC/MS spectrum obtained by injection of the solution of the test article in the desired solvent to the AUC of a reference standard solution. […] The reference solution was made fresh for every time point. Data was then calculated to give % test article remaining as function of time.
(§5) 1) A stock solution of the active pharmaceutical ingredient (API) was prepared in a 1,4-dioxane at 10 mM. 2) Nineteen 200 μl portions of stock were dispensed into 19 clean 500 μl micro-centrifuge tubes and the solvent removed by a stream of nitrogen. The 19 tubes were marked with numbers 1-19. 3) Five 200 μl portions of stock were dispensed into 5 clean 200 μl micro-centrifuge tubes and the solvent removed by a stream of nitrogen; these tubes were marked: S1, S2, S3, S4 and S5 and were to be saved for quantization by LC/MS. 4) The vehicles were prepared on a w/w basis for co-solvents, and on a molar basis for salts. 5) 200 μL of each vehicle was introduced into the appropriate micro centrifuge tube 1-19, corresponding to that vehicle. The final concentration of API was 10 mM. These were the test samples. 6) The sample tubes 1-19 were sonicated for 30 min and then agitated for 24h. 7) The vessel was centrifuged and 50 μl of the supernatant was removed and diluted with 350 μl of acetonitrile for LC/MS analysis. These were the test samples. 8) Micro-centrifuge tubes S1-S5 were reconstituted immediately before analysis by adding 200 μl of acetonitrile and 200 μl od 1,4-dioxane to the tubes and sonicating for 30 min. These were the standards. 9) Before analysis all 24 tubes were centrifuged. 10) 50 μl of the clear supernatant from Sample tubes 1-19 was removed and diluted into 350 μl of acetonitrile for LC/MS analysis. 11) 100 μl of the clear supernatant from Standard tubes S1-S5 was removed and diluted into 300 μl of acetonitrile for LC/MS analysis.
(§6) 13) Quantization was based on comparison to the AUC from the stock solution and was relative.
(§7) A freshly prepared standard was used for each time point.
The nature of data set [3]: Equilibrium (intrinsic) solubility of the test article in formulation mixtures, 24h, LC/MS. The note with it: for solubility at 24 h: aqueous with cosolvent or surfactant or cyclodextrin, thermodynamic from solid.
Protocol: as §3, §4, §5, §6, §7
Data set [4] concerns LP9 cells. Put plainly: Cell viability of LP9 mesothelial cells, 48 h, crystal violet staining. It counts as cell-based. The note with it: VitE-TPGS (w/v) in 0.9% NaCl. How it is done: as §1, §2

In the case of `C=C(NC(=O)C(=C)NC(=O)c1csc(C2=N[C@@H]3c4csc(n4)[C@H]4NC(=O)c5csc(n5)[C@H]([C@](C)(O)[C@@H](C)O)NC(=O)[C@H]5CSC(=N5)/C(=C/C)NC(=O)[C@H]([C@@H](C)O)NC(=O)c5csc(n5)[C@]3(CC2)NC(=O)[C@H](C)NC(=O)C(=C)NC(=O)[C@H](C)NC(=O)[C@H]([C@@H](C)CC)N[C@@H]2C=Cc3c([C@H](C)O)cc(nc3[C@H]2O)C(=O)O[C@@H]4C)n1)C(N)=O` [TS, Thiostrepton], the “Sensitivity of HM cells compared to LP9 cells” value in data set [1] (HM vs LP9 cells) was “more sensitive”. For the same molecule, the solubility at 24 h amounted to 1740 µM (≈ 2900 µg/mL) in data set [2]; 130 µM (≈ 216 µg/mL) in data set [3] (1% polyacrylic acid (450,000 amw) in normal saline); 200 µM (≈ 333 µg/mL) in data set [3] (1% polyvinylalcohol (61,000 amw) in normal saline); 220 µM (≈ 366 µg/mL) in data set [3] (2% Tween 80 in normal saline); 1140 µM (≈ 1900 µg/mL) in data set [3] (10% Cremophore in normal saline); 520 µM (≈ 866 µg/mL) in data set [3] (10% Solutol HS 15 in normal saline). In addition, the solubility at 24 h amounted to 50 µM (≈ 83.2 µg/mL) in data set [3] (10% capmul in normal saline); 200 µM (≈ 333 µg/mL) in data set [3] (10% meglumine in normal saline); 380 µM (≈ 633 µg/mL) in data set [3] (20% Captisol in normal saline); 1170 µM (≈ 1950 µg/mL) in data set [3] (20% Gelucire 44/14 in normal saline); 490 µM (≈ 816 µg/mL) in data set [3] (20% Labrafil 1944CS in normal saline); 300 µM (≈ 499 µg/mL) in data set [3] (20% Peceol in normal saline). Further, the solubility at 24 h in data set [3] (20% hydroxypropyl-beta-cyclodextrin in normal saline) was found to be 440 µM (≈ 733 µg/mL); in data set [3] (20% poloxamer 188 in normal saline) it was 210 µM (≈ 350 µg/mL); in data set [3] (20% transcutol in normal saline), 660 µM (≈ 1100 µg/mL); in data set [3] (30% Capryol 90 in normal saline), 1470 µM (≈ 2450 µg/mL); in data set [3] (30% Labrafac PG in normal saline) it was 380 µM (≈ 633 µg/mL); in data set [3] (30% Labrasol in normal saline) it was 150 µM (≈ 250 µg/mL). For the same molecule, in data set [3] (30% polyethylene glycol 300 in normal saline), the solubility at 24 h was 320 µM (≈ 533 µg/mL). Also, the “Solubility (in words)” value in data set [3] (1,4-dioxane and chloroform) is on record as “freely soluble”; in data set [3] (aqueous solutions and a variety of organic solvents), “fairly low solubility”.

Regarding “D-a-tocopheryl polyethylene glycol 1000 succinate [VitE-TPGS]”, the IC50 is 0.0014% in data set [4] and 0.0006% in data set [1] (HM cells, VitE-TPGS (w/v) in 0.9% NaCl).
